Literature values in patent US20250222024A1, “METHOD AND COMPOSITION FOR TREATING CORONA VIRUS, INFLUENZA, AND ACUTE RESPIRATORY DISTRESS SYNDROME” (ReversPAH LLC, priority 2020, published 2025).

Key:
[1] = system: silica-induced lung inflammation and fibrosis; conditions: by inhibiting T-helper 17 cell (TH 17)
[2] = system: monocrotaline-induced pulmonary hypertension; conditions: through the bone morphogenetic protein signaling pathway
SARS-CoV-2 = conditions: in vitro
[3] = system: carrageenan-induced lung injury; conditions: for TNF-alpha levels in the lung / nitrite and nitrate levels (stable NO metabolites) in pleural exudates: 4 hours after carrageenan administration, versus CAR group, n=8 mice; for TNF-alpha levels in the lung: FIG. 10(a); for nitrite and nitrate levels (stable NO metabolites) in pleural exudates: FIG. 10(b)
[4] = system: Sugen/hypoxia-induced PAH; conditions: rat

## O=C(O)[C@H]1O[C@@H](Oc2cc3oc(-c4ccccc4)cc(=O)c3c(O)c2O)[C@H](O)[C@@H](O)[C@@H]1O [Baicalin]
[1]
  silica-induced lung inflammation and fibrosis: alleviate silica-induced lung inflammation and fibrosis
[2]
  monocrotaline-induced pulmonary hypertension: attenuate monocrotaline-induced pulmonary hypertension

## Ivermectin
SARS-CoV-2
  replication of SARS-CoV-2: inhibits the replication of SARS-CoV-2 in vitro

## CCN(CC)C(=O)N1CCN(C)CC1 [DEC, Diethylcarbamazine]
[3]
  TNF-alpha levels in the lung: significantly reduced the TNF-alpha levels
  nitrite and nitrate levels (stable NO metabolites) in pleural exudates: significantly reduced the nitrite and nitrate level
[3]; mouse acute lung injury model, DEC pretreatment, FIG. 9
  neutrophil infiltration into the lung (myeloperoxidase marker): significantly inhibited neutrophil infiltration

## S=C(S)N1CCCC1 [pyrrolidine dithiocarbamate]
[4]
  reversal of established angio-obliterative PAH: reverse established angio-obliterative PAH

## COc1ccc2c(c1)c(CC(=O)O)c(C)n2C(=O)c1ccc(Cl)cc1 [INDO]
[3]
  TNF-alpha levels in the lung: did not reduce the TNF-alpha level
  nitrite and nitrate levels (stable NO metabolites) in pleural exudates: significantly reduced the nitrite and nitrate level
